In patent US5360895A, “Derivatized gold clusters and antibody-gold cluster conjugates” (priority 1992, dated 1994):

Columns and labels:
[1] = Biodistribution of radioactive gold clusters (no antibody) in healthy mice; format: in vivo
Method: Typically the blood had 2.8%, the spleen 0.4%, the stomach 0.4%, kidney 5.1%, bone 2.5%, gut and feces 3.3%, liver 19.3% and, carcass 13.7% of the injected amount after 24 hours. These numbers are % counts per organ normalized to 25 gm mice.

[2] = Thermal stability of gold clusters; format: physicochemical; details: 100° C.
[3] = system: human colon carcinoma cells (LS180)
Method: (§1) The 17-1A Fab' fragment-(radioactive gold)-undecagold cluster conjugate was incubated in vitro with tumor cells (LS180- a cell culture of human colon carcinoma) and non tumor cells (WM164 - a cell culture of melanoma as control) and the radioactivity of the gold was used to assay binding.
(§2) bound to cells after incubation and washing.
(§3) entry is an average (+ s.d.) of 2 samples.

[4] = Biodistribution of radioactive gold clusters (no antibody) in healthy mice; format: in vivo; details: after 2 hours, tail vein
[5] = Toxicity of radioactive gold clusters (no antibody) in healthy mice; details: tail vein; 7.8, 12.6 or 24 μg gold metal; 2 or 24 hours
Method: The folowing in vivo tests in mice assess both biodistribution with time and toxicity.
Various doses of gold cluster were injected into the tail vein of healthy mice: cluster containing 7.8 μg of gold metal into one group, 12.6 μg into another and 24 μg into the third. Each group consisted of 6 animals, for a total of 18 mice. Three mice from each group were sacrificed after 2 hours and the remaining 3 were terminated after 24 hours in order to determine the biodistribution in different organs as a function of time.

[6] = Stability of photocrosslinked Au13 cluster to KCN (optical density at 346 and 420 nm); format: physicochemical; details: 100 μl of cluster (1 μMolar) with 20 μl of 0.1M KCN
Method: Two nmol of the Au13 [P(PhCONH(CH2)3 NH2)3 ]10 cluster in 0.1M sodium citrate buffer, pH 5, was incubated with the crosslinking reagent, N-hydroxysuccinimidyl-4-azidosalicylic acid (NHS-ASA). A range of amounts was tried, from 1 to 100-fold molar excess over the number of amines in the cluster. Incubation was carried out in the dark for 30 min. The solution was exposed to UV light (Ultraviolet Products Inc., Lamp R-52) at 4 cm for 5 min. The product was purified on a 0.66×50 cm column of GH-25 (Amicon) using the buffer 0.36M triethylammonium bicarbonate/70% methanol in water. Alternately, these last two steps were reversed so that unreacted crosslinker was removed on the column before UV treatment.
The crosslinked cluster stability was quantitated by observing the decrease in optical density at 346 and 420 nm in a spectrophotometer at regular intervals after adding KCN or glutathione. One hundred μl of cluster (1 μMolar) was mixed with 20 μl of 0.1M KCN. […] Noncrosslinked cluster was completely destroyed after 2 min under these conditions.
A longer photocrosslinking reagent was also used, sulfosuccinimidyl 6-(4'-azido-2'-nitrophenylamino) hexanoate (sulfo-SANPAH). The procedure was identical to that described above. For 100-fold initial excess of crosslinker, the resulting cluster product was 100% stable to KCN indefinitely, whereas uncrosslinked cluster was completely destroyed in 2 min.

[7] = Chemical stability of derivatized Au13 cluster
[8] = 24 hours, % counts per organ normalized to 25 gm mice

Method for melanoma cells (WM164): as §1, §2, §3

Row | Substance | blood, % of the injected amount [1, 8] | bone, % of the injected amount [1, 8] | carcass, % of the injected amount [1, 8] | gut and feces, % of the injected amount [1, 8] | kidney, % of the injected amount [1, 8] | liver, % of the injected amount [1, 8] | spleen, % of the injected amount [1, 8] | stomach, % of the injected amount [1, 8] | clusters excreted ([1]; after 24 hours, tail vein) | stability at 100° C. [2] | % bound to tumor cells (human colon carcinoma) [3] | % bound to control cells (melanoma) (melanoma cells (WM164)) | clusters excreted [4] | death or unusual reaction during or following injection [5] | time to complete destruction in KCN [6] | stability upon addition of 1M KCN [7]
1 | Au11 [P(C6 H4 CONHR)3 ]7^3+ where 20 R groups are CH3 and one is (CH2)3 N(CO2)(CH2) | 2.8% | 2.5% | 13.7% | 3.3% | 5.1% | 19.3% | 0.4% | 0.4% | 56% | perfectly stable | 0.54 ± 0.04% | 0.51 ± 0.06% | 44% | no mice died or reacted unusually | – | –
2 | Au13 [P(PhCONH(CH2)3 NH2)3 ]10 [derivatized Au13 cluster] | – | – | – | – | – | – | – | – | – | – | – | – | – | – | 2 min | degraded
